Reference: patent US20250268876A1, “TREATMENT OF HIDRADENITIS SUPPURATIVA WITH ORISMILAST” (UNION THERAPEUTICS A/S, priority 2021, published 2025)
“And” between values parts separate entries of the source, which are not always exact repeats. Identical values can stand only once. Like-named read-outs stand apart in the source and are kept apart here.

Legend:
[1] = test system: TNF-α secretion from human whole blood; assay: Whole blood TNF-α secretion assay (LPS or SEB); type: cell-based; conditions: for times more potent than Roflumilast / times more potent than apremilast: mean EC50 values; for Emax / EC50: Homo sapiens; for Emax: read-out: Emax
PDE4C2 = PDE4C2 (Homo sapiens, UniProt Q08493); type: biochemical
Sequence of PDE4C2 (Q08493 107-712): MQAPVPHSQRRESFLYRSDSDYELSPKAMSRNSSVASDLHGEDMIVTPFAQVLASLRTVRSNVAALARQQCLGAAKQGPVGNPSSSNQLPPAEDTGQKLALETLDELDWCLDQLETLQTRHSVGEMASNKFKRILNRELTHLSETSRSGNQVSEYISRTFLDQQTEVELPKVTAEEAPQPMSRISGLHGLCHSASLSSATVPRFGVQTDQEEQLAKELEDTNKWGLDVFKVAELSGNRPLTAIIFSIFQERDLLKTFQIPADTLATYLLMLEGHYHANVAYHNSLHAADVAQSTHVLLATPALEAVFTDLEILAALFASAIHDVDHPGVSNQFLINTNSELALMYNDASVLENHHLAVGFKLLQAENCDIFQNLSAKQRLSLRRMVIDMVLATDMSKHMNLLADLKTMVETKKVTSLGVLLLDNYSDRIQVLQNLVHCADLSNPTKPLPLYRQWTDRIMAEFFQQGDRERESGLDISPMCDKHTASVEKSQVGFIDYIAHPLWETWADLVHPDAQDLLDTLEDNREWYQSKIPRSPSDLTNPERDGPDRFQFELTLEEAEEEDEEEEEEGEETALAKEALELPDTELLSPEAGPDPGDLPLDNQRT
Experimental: (§1) Enzyme Preparations: Partially purified human recombinant phosphodiesterases (PDEs) were obtained by cloning cDNA and expressing in S. frugiperda insect cells using a baculovirus expression system. Cells are harvested from culture by centrifuging at 400×g for 5 minutes. Cell pellet is resuspended in 20 ml of RIPA Buffer (150 mM NaCl, 10 mM Tris, 0.1% NP-40, pH8.3), 4 ml/200 ml of culture, plus protease inhibitors (100 μl/10 ml) and incubated on ice for 10-20 minutes then spun at 3500×g for 10 minutes at 4° C. Supernatant is kept and the pellet thrown away.
(§2) Tritium-labelled cyclic AMP is hydrolysed to 5′-AMP o by PDE. The 5′-AMP is then further hydrolysed to adenosine by nucleotidase in snake venom. An anion-exchange resin binds all charged nucleotides and leaves [^3H]adenosine as the only labelled compound to be counted by liquid scintillation.
(§3) 50 μl of diluted PDE enzyme was incubated with 50 μl of [^3H]-cAMP (specific activity 25 Ci/mmol) and 11 μl of 50% DMSO (or compound dilution) for 20 minutes at 30° C. The enzyme was diluted in 20 mM Tris HCl pH7.4 (×2.2 final concentration) and [3H]-cAMP was diluted in 10 mM MgCl2, 40 mM Tris HCl pH 7.4 (×2.2 final concentration). Reactions were carried out in Greiner 96 deep well 1 ml master-block. The plates were centrifuged for 9 seconds before the 20 minutes incubation. […] After incubation 200 μl Dowex resin (1×8, 200-400 mesh) was added and the plate shaken for 20 minutes then centrifuged for 3 minutes at 1000×g. 50 μl of supernatant was removed and added to 200 μl of MicroScint-20 in white plates (Greiner 96well Optiplate) and shaken for 30 minutes before reading on Perkin Elmer TopCount Scintillation Counter. IC50 values were calculated using GraphPad Prism software (version 8).

PDE4B3 = PDE4B3 (Homo sapiens, UniProt Q07343); type: biochemical
Experimental: as §1, §2, §3

PDE4D5 = PDE4D5 (Homo sapiens, UniProt Q08499); type: biochemical
Sequence of PDE4D5 (Q08499 1-745 isoform Q08499-6): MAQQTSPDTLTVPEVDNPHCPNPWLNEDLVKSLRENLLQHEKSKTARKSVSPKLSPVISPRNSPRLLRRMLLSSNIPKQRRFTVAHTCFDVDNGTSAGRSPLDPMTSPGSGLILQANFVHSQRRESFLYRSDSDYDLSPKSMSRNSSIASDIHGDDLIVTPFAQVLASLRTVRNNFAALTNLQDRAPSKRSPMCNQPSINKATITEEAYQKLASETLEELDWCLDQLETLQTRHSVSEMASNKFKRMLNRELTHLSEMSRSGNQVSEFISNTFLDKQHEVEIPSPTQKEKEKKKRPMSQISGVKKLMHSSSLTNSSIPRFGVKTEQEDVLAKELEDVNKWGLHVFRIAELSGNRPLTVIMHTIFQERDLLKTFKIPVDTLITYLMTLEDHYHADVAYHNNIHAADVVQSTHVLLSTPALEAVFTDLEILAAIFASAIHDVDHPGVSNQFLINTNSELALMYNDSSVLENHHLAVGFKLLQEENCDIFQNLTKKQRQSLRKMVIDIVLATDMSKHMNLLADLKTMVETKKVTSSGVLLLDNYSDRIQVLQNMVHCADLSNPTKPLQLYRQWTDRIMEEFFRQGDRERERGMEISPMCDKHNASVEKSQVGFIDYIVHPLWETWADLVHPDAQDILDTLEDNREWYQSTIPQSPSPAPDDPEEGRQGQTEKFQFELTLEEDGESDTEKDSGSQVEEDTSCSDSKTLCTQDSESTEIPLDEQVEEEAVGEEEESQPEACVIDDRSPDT
Experimental: as §1, §2, §3

PDE4D2 = PDE4D2 (Homo sapiens, UniProt Q08499); type: biochemical
Experimental: as §1, §2, §3

PDE4D7 = PDE4D7 (Homo sapiens, UniProt Q08499); type: biochemical
Experimental: as §1, §2, §3

PDE4D4 = PDE4D4 (Homo sapiens, UniProt Q08499); type: biochemical
Sequence of PDE4D4 (Q08499 whole entry): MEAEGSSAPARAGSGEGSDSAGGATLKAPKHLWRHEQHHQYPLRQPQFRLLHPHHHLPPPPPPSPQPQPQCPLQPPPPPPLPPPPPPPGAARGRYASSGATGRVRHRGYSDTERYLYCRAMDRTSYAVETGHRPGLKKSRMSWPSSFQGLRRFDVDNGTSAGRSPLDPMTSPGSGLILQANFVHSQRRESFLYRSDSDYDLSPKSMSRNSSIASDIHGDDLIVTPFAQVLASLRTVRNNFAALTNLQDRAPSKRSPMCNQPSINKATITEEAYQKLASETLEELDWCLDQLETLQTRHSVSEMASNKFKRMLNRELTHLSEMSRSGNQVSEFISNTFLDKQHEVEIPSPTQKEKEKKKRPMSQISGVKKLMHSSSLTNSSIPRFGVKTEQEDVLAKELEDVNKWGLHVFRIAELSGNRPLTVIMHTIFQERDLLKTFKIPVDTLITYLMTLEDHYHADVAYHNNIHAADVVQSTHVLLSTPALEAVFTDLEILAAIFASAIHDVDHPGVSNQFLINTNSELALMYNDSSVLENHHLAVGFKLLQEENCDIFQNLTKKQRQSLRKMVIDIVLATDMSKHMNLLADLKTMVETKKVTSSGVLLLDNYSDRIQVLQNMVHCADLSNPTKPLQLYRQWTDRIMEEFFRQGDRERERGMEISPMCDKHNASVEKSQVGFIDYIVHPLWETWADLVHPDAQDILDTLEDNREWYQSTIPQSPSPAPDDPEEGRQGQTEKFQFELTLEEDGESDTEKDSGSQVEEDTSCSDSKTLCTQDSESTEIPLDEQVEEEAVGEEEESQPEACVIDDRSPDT
Experimental: as §1, §2, §3

PDE4D3 = PDE4D3 (Homo sapiens, UniProt Q08499); type: biochemical
Sequence of PDE4D3 (Q08499 1-673 isoform Q08499-2): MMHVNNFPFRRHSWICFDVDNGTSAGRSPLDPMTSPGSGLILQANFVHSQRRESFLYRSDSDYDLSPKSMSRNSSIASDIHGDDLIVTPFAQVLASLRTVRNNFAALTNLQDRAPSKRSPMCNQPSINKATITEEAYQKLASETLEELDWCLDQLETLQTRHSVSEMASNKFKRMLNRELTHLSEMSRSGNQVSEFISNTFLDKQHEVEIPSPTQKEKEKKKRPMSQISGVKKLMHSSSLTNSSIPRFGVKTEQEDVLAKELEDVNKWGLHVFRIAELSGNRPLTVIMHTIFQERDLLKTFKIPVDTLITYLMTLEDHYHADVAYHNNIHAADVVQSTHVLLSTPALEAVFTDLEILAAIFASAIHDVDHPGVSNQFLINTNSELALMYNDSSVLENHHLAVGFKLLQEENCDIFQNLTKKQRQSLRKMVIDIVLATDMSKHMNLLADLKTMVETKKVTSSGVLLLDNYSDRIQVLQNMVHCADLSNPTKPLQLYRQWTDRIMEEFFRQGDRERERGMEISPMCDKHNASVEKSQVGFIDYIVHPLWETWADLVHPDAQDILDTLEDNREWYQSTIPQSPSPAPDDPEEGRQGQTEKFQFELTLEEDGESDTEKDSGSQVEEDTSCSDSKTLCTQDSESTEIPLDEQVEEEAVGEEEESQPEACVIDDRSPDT
Experimental: as §1, §2, §3

PDE4B1 = PDE4B1 (Homo sapiens, UniProt Q07343); type: biochemical
Sequence of PDE4B1 (Q07343 whole entry): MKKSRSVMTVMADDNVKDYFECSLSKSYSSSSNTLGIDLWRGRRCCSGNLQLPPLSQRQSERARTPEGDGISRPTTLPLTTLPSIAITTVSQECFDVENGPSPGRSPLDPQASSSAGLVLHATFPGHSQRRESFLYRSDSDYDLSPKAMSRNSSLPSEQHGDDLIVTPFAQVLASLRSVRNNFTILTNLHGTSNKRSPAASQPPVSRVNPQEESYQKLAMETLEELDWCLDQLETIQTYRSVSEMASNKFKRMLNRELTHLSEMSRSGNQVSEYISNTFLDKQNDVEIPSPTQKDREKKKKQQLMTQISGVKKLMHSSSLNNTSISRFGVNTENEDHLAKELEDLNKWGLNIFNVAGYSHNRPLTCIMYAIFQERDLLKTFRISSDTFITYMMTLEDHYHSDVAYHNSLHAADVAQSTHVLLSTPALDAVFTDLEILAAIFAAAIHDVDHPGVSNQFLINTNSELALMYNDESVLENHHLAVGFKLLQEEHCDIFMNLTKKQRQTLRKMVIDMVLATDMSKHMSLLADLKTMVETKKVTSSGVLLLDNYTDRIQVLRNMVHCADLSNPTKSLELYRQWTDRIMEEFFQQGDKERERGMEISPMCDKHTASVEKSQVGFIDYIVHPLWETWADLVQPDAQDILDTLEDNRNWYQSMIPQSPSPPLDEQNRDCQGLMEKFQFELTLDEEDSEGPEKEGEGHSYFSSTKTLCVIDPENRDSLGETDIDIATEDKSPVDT
Experimental: as §1, §2, §3

PDE4D1 = PDE4D1 (Homo sapiens, UniProt Q08499); type: biochemical
Sequence of PDE4D1 (Q08499 1-584 isoform Q08499-4): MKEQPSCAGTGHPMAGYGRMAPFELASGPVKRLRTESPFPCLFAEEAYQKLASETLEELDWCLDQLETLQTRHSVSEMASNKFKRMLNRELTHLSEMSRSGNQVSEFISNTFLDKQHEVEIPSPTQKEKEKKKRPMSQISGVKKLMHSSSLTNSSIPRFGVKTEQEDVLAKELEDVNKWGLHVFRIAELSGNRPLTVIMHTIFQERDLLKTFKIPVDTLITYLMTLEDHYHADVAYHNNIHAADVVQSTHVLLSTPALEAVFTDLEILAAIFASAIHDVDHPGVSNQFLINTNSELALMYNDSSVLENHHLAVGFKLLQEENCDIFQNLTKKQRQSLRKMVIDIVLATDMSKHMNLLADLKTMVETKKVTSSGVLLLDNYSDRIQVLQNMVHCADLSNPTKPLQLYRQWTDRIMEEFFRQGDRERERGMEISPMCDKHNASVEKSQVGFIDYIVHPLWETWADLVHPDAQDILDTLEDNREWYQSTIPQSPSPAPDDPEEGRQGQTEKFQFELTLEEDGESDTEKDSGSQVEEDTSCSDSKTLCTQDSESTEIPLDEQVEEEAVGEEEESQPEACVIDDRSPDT
Experimental: as §1, §2, §3

PDE4B2 = PDE4B2 (Homo sapiens, UniProt Q07343); type: biochemical
Experimental: as §1, §2, §3

PDE4A4 = PDE4A4 (Homo sapiens, UniProt P27815); assay: IMAP fluorescence polarisation PDE4 subtype assay; type: biochemical
Sequence of PDE4A4 (P27815 whole entry): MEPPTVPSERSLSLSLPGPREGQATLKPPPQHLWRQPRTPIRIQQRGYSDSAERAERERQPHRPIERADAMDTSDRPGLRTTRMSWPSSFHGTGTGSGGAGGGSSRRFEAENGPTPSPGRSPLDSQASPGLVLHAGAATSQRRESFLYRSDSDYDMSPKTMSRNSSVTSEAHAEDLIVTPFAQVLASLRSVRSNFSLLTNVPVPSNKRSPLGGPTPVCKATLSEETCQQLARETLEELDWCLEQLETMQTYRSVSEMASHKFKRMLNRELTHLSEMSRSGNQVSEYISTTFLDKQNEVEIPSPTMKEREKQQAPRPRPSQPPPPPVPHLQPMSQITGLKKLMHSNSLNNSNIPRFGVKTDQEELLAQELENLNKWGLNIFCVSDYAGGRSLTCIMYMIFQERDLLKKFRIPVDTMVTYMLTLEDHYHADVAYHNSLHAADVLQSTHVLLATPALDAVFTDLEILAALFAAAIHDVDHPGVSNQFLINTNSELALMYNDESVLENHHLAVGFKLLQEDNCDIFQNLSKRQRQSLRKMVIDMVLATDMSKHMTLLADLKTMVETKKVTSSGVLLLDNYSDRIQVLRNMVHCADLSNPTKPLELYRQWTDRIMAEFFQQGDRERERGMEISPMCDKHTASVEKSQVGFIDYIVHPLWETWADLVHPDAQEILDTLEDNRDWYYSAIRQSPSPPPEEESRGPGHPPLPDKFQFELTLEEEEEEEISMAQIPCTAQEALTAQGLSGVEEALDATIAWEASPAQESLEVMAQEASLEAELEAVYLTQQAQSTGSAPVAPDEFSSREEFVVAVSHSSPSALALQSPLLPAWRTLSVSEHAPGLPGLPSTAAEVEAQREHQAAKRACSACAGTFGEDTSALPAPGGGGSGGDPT
Experimental: The binding reagent complexes with phosphate groups on nucleotide monophosphate generated from cyclic nucleotides (cAMP/cGMP) through phosphodiesterases. With fluorescence polarisation detection, binding causes a change in the rate of the molecular motion of the phosphate bearing molecule, and results in an increase in the fluorescence polarization value observed for the fluorescent label attached to the substrate. […] All assays were performed in 3% (final) DMSO for the IMAP assay.

[2] = test system: TNF-α release from human peripheral blood mononuclear cells; assay: TNF-α release, serum-free, hPBMC, LPS; type: cell-based; conditions: PBMC, 18 hours
Experimental: TNF-α, Serumfree, hPBMC, LPS
Cultures of human PBMC isolated from buffy coats were stimulated with lipopolysaccharide to activate the monocytes and to release TNF-α. PBMC were isolated from fresh buffy coats and frozen for later use. On the assay day, cells were thawed, washed in serum free medium (RPMI1640 with 25 mM HEPES, 1% pen/strep, […] L glutamine and 0.5% human serum albumin) and living cells were counted. Test compounds were diluted in DMSO and further diluted in serum-free medium and pipetted into wells of 384 well tissue culture plates. LPS was added to the cells which shortly thereafter were added to the wells with titrated test compounds and incubated for 18 hours at 37° C. The next day, the level of TNF-α in the culture supernatant was quantitated by homogenous time-resolved fluorescence (HTRF) where FRET was measured at 665 nm and normalized to the fluorescence of europium cryptate at 620 nm. The effect (inhibition of TNF-α release) of a test compound was calculated using equation 1: […]
Fluorescence intensities, measured at 665 nm and 620 nm, were used to calculate the 665/620 ratio as an estimate of the level of secreted TNF-α. Sx denotes the 665/620 ratio associated with the test compound. So and Sc denote the 665/620 ratios associated with 0.1% DMSO and 1E-05 M compound (II), respectively.
This model describes a sigmoidal curve with an adjustable baseline, a. […]

O=C(Cc1c(Cl)c[n+]([O-])cc1Cl)c1ccc(OC(F)F)c2c1OC1(CCS(=O)(=O)CC1)O2 [Compound (I), 2-(3,5-Dichloro-1-oxido-pyridine-4-yl)-1-(7-difluoro-methoxy-2′,3′,5′,6′-tetrahydro-spiro[1,3-benzodioxole-2,4′-(4H)-thiopyran-1′,1′-dioxide]-4-yl)ethanone]
times more potent than Roflumilast ([1]; (M)): 1.7 times
times more potent than Roflumilast ([1]; (ng/mL)): 1.4 times
Emax ([1]; 24 h, LPS 1 μg/mL, 24 hours, donor 1, Emax defined as TNF-α level in un-stimulated wells): 76%
EC50 ([1]; 24 h, LPS 1 μg/mL, 24 hours, donor 1, read-out: EC50): 5.34 nM
EC50 ([1]; 24 h, LPS 1 μg/mL, 24 hours, donor 2, read-out: EC50): 18.4 nM
Emax ([1]; 24 h, LPS 1 μg/mL, 24 hours, donor 2): 79%
EC50 ([1]; 24 h, SEB 1 μg/mL, 24 hours, donor 1, read-out: EC50): 4.93 nM
Emax ([1]; 24 h, SEB 1 μg/mL, 24 hours, donor 1): 97%
EC50 ([1]; 24 h, SEB 1 μg/mL, 24 hours, donor 2, read-out: EC50): 24.9 nM
Emax ([1]; 24 h, SEB 1 μg/mL, 24 hours, donor 2): 66%
EC50 ([1]; 48 h, LPS 1 μg/mL, 48 hours, donor 1, read-out: EC50): 12.1 nM
Emax ([1]; 48 h, LPS 1 μg/mL, 48 hours, donor 1): 71%
EC50 ([1]; 48 h, LPS 1 μg/mL, 48 hours, donor 2, read-out: EC50): 19.8 nM
Emax ([1]; 48 h, LPS 1 μg/mL, 48 hours, donor 2): 80%
EC50 ([1]; 48 h, SEB 1 μg/mL, 48 hours, donor 1, read-out: EC50): 4.66 nM
Emax ([1]; 48 h, SEB 1 μg/mL, 48 hours, donor 1): 98%
EC50 ([1]; 48 h, SEB 1 μg/mL, 48 hours, donor 2, read-out: EC50): 47.8 nM
Emax ([1]; 48 h, SEB 1 μg/mL, 48 hours, donor 2): 83%
EC50 ([1]; mean of 8 determinations (LPS and SEB, 24 and 48 hours, 2 donors), read-out: Geometric mean of EC50 values across different assay parameters): 12.6 nM and 0.00643 µg/mL
Potency compared with roflumilast-N-oxide (in words) ([1]; LPS and SEB-induced TNF-α secretion): equipotent to—or slightly more potent than
times more potent than apremilast ([1]; based on molar concentrations): 23 times
times more potent than apremilast ([1]; based on ng/mL concentrations): 21 times
IC50 (PDE4C2): 104 nM
IC50 (PDE4B3): 3 nM
IC50 (PDE4D5): 3 nM
IC50 (PDE4D2): 9 nM
IC50 (PDE4D7): 3 nM
IC50 (PDE4D4): 8 nM
IC50 (PDE4D3): 8 nM
IC50 (PDE4B1): 16 nM
IC50 (PDE4D1): 9 nM
IC50 (PDE4B2): 6 nM
inhibition at 0.1 µM (PDE4A4; compound 10^−7 M): 47%
inhibition at 0.01 µM (PDE4A4; compound 10^−8 M): 24%
inhibition at 0.001 µM (PDE4A4; compound 10^−9 M): 0%
inhibition at 0.0001 µM (PDE4A4; compound 10^−10 M): 0%
EC50 [2]: 11.4 nM
Emax [2]: 102%
